Values of other authors, collected in patent US20220183969A1, “OCULAR INSERT CONTAINING A GLUCOCORTICOID” (Ocular Therapeutix, Inc., priority 2020, published 2022).

Details: for Equivalent Dose: established equivalent oral dose; for Relative Potency: oral glucocorticoid potency with reference to cortisol

SMILES	Equivalent Dose	Relative Potency
C[C@]12CCC(=O)C=C1CC[C@@H]1[C@@H]2[C@@H](O)C[C@@]2(C)[C@H]1CC[C@]2(O)C(=O)CO [Cortisol]	20 mg	1
C[C@@H]1C[C@H]2[C@@H]3CCC4=CC(=O)C=C[C@]4(C)[C@@]3(F)[C@@H](O)C[C@]2(C)[C@@]1(O)C(=O)CO [Dexamethasone, 9-Fluor-11β,17,21-trihydroxy-16α-methyl-pregna-1,4-dien-3,20-dion]	0.8 mg	25-80
C[C@]12C=CC(=O)C=C1CC[C@@H]1[C@@H]2[C@@H](O)C[C@@]2(C)[C@H]1CC[C@]2(O)C(=O)CO [Prednisolone]	5 mg	4
C[C@]12C=CC(=O)C=C1CC[C@H]1[C@@H]3C[C@@H](O)[C@](O)(C(=O)CO)[C@@]3(C)C[C@H](O)[C@@]12F [Triamcinolone]	4 mg	5
